Here are results for 8 compounds from US8785459B2, “Quinazoline compounds as kinase inhibitors” (Development Center for Biotechnology, priority 2011, dated 2014).

Structures are written as SMILES.

Assay [1] deals with B-Raf (Homo sapiens (Human), UniProt P15056). Put plainly: Raf kinase assay (B-Raf), [33P] incorporation into MEK1(K97R). Format: biochemical. As to conditions: for inhibition at 1 µM: 1.0 μM compound, read-out: B-Raf inhibition at 1.0 μM. An outline of the steps:
(§1)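 [33P] transfer to kinase-dead MEK1(K97R) substrate (500 ng) measured after 30 min at 30 °C in Tris pH 7.5 buffer containing 8 μM ATP. Enzyme inputs were 2 ng for C-Raf and 5 ng for B-Raf and B-Raf V600E. Duplicate 3-fold serial dilutions gave the half-maximal inhibitory concentration.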

In assay [2] the target is B-Raf (V600E) (Homo sapiens (Human), UniProt P15056, V600E). In words: Raf kinase assay (B-Raf (V600E)), [33P] incorporation into MEK1(K97R). Format: biochemical. Summed up: as §1
B-Raf (V600E), sequence (P15056 whole entry V600E): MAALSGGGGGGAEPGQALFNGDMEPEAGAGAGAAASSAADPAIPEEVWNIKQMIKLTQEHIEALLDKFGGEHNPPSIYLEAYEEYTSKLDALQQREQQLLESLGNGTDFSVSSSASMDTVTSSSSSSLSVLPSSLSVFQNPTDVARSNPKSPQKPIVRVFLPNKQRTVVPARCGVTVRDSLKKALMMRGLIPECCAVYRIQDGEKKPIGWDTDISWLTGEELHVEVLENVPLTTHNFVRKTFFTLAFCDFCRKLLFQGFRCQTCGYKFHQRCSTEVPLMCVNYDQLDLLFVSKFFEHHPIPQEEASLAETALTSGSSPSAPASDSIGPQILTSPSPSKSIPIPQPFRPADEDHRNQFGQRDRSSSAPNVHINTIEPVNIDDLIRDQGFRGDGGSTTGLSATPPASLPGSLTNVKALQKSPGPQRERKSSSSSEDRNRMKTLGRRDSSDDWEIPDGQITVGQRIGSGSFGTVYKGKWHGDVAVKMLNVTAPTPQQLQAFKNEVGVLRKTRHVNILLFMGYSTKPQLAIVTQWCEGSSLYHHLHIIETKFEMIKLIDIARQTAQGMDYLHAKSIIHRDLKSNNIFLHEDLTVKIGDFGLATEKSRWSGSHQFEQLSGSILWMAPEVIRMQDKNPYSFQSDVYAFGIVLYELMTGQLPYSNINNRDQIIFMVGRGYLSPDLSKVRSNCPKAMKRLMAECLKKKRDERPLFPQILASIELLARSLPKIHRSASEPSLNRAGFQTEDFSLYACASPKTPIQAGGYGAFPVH
Assay [3] deals with C-Raf (Homo sapiens (Human), UniProt P04049). Put plainly: Raf kinase assay (C-Raf), [33P] incorporation into MEK1(K97R). Format: biochemical. An outline of the steps: as §1
C-Raf, sequence (P04049 whole entry): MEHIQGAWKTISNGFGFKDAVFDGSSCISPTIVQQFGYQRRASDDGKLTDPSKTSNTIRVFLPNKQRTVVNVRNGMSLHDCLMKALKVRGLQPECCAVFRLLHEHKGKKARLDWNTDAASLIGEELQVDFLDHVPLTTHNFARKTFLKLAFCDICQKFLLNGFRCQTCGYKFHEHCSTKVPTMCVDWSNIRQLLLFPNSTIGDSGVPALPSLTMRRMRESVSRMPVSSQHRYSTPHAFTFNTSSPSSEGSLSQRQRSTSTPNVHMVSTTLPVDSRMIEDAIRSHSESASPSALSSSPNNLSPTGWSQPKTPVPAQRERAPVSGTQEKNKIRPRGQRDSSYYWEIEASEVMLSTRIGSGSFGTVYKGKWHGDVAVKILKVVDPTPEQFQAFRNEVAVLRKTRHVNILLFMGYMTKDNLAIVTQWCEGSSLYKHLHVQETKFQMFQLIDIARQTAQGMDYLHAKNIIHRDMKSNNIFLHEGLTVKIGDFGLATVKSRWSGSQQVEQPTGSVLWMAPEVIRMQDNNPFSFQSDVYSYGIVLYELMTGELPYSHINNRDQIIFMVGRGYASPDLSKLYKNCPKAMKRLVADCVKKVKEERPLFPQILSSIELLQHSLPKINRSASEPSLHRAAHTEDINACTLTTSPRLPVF
For assay [4], the system named is A549. In words: Anti-proliferative activity, CellTiter-96 assay, A549. Format: cell-based. The conditions noted are these: Homo sapiens, A549 cells, 72 hours incubation. The method, then:
(§2) Antiproliferative Activity
(§3) The anti-proliferative activities of the compounds with formula (I) and formula (II) with respect to four human cancer cell lines (A549, A375, MDA-MB-231, and COLO205) were measured using the CellTiter™-96 assay kit (Promega) following the manufacturer's instructions. In brief, the cells were maintained in DMEM containing 10% FCS and incubated at 37° C. in 5% CO2 atmosphere. Cells were plated at a density of 2000 cells/well of a 96-well plate for 24 h, then treated with different concentrations of the compounds, and incubated for another 72 hours. At the end of the incubation, CellTiter™-96 Aqueous One Solution Reagent (Promega) was added and incubated for another 4.0 hours. Cell viability was determined by measuring absorbance at 490 nm using EMax® microplate reader (Molecular Devices). Data were processed and analyzed using GraphPad Prism version 4.

Assay [5] has as its system A375. In words: Anti-proliferative activity, CellTiter-96 assay, A375. As to conditions: Homo sapiens, A-375, A375 cells, 72 hours incubation. Format: cell-based. The method, then: as §2, §3
Assay [6] has as its system MDA-MB-231. In words: Anti-proliferative activity, CellTiter-96 assay, MDA-MB-231. Format: cell-based. As to conditions: Homo sapiens, MDA-MB-231 cells, 72 hours incubation. The method, then:
as §2, §3

Assay [7] relates to COLO205. In words: Anti-proliferative activity, CellTiter-96 assay, COLO205. The conditions noted are these: Homo sapiens, COLO 205, COLO205 cells, 72 hours incubation. Format: cell-based. The method, then: as §2, §3

B-Raf, sequence (P15056 whole entry): as the sequence (P15056 whole entry V600E) above, with E600V counted along it

As for `COc1cc(-c2ccc3ncnc(Nc4ccc(F)c(O)c4)c3c2)ccc1O` [Compound 161, 4-(4-(4-fluoro-3-hydroxyphenylamino)quinazolin-6-yl)-2-methoxyphenol], the 50% inhibitory concentration (IC50) in assay [1] was 16.9 nM; in assay [2], 23.4 nM; in assay [3], 133 nM; in assay [4] it was 1.5 ± 0.3 µM; in assay [5], 1 ± 0.1 µM; in assay [6] it was 2.1 ± 0.5 µM. The compound further had a half-inhibitory concentration (IC50) in assay [7] of 5.2 ± 1.8 µM. Besides, the inhibition at 1 µM in assay [1] turned out to be 94.7%.

In the case of `Oc1cc(Nc2ncnc3ccc(-c4ccc(Cl)cc4)cc23)c(F)cc1F` [Compound 160, 5-(6-(4-chlorophenyl)quinazolin-4-ylamino)-2,4-difluorophenol], the IC50 was 8.9 nM in assay [1]; 19 nM in assay [2]; 147 nM in assay [3]; greater than 30 µM in assay [4]; 8.2 ± 1.3 µM in assay [5]; greater than 30 µM in assay [6]. This compound returned a concentration for half-maximal inhibition (IC50) in assay [7] of 20.9 ± 12.6 µM. The inhibition at 1 µM in assay [1] worked out at 97.9%.

Turning to `COc1ccc(-c2ccc3ncnc(Oc4cccc(O)c4)c3c2)cc1` [Compound 152, 3-(6-(4-methoxyphenyl)quinazolin-4-yloxy)phenol], the IC50 in assay [1] is 131 nM; in assay [2], 198 nM; in assay [3], 2330 nM; in assay [4], greater than 50 µM; in assay [5] it was greater than 50 µM; in assay [6] it was greater than 50 µM. For the same compound, in assay [1], the inhibition at 1 µM was determined as 86.4%.

In the case of `COc1cccc(-c2ccc3nccc(Nc4cccc5[nH]ncc45)c3c2)c1F` [Compound 111, 6-(2-fluoro-3-methoxyphenyl)-N-(1H-indazol-4-yl)quinolin-4-amine], the IC50 was determined as 83.4 nM in assay [1]; 99.9 nM in assay [2]; 290 nM in assay [3]; 25.1 ± 7.1 µM in assay [4]; 36.3 ± 1.7 µM in assay [5]; 26.5 ± 7.3 µM in assay [6]. Also, in assay [7], the IC50 worked out at 32.3 ± 8.5 µM. The inhibition at 1 µM in assay [1] was found to be 89.1%.

Regarding `N#Cc1cccc(-c2ccc3nccc(Nc4cccc5[nH]ncc45)c3c2)c1` [Compound 114, 3-(4-(1H-indazol-4-ylamino)quinolin-6-yl)benzonitrile], the IC50 was 99.2 nM in assay [1]; 123 nM in assay [2]; 287 nM in assay [3]; 4.8 ± 1.6 µM in assay [4]; 6.3 ± 0.7 µM in assay [5]; 6.2 ± 0.6 µM in assay [6]. For the same compound, the IC50 in assay [7] came to 2.6 ± 0.4 µM. Moreover, in assay [1], the inhibition at 1 µM turned out to be 82.3%.

Take `COc1cc(-c2ccc3ncnc(Nc4cccc5[nH]nc(Cl)c45)c3c2)ccc1O` [Compound 126, 4-(4-(3-chloro-1H-indazol-4-ylamino)quinazolin-6-yl)-2-methoxyphenol]: the IC50 was determined as 142 nM in assay [1]; 162 nM in assay [2]; 287 nM in assay [3]; 2.7 ± 1.7 µM in assay [4]; 2.9 ± 1.6 µM in assay [5]; 2.4 ± 1.1 µM in assay [6]. In assay [7], this compound showed an IC50 of 16.8 ± 9.3 µM. For the same compound, in assay [1], the inhibition at 1 µM turned out to be 83.6%.

Take `COc1cc(-c2cc3c(Nc4cc(O)ccc4Cl)ncnc3cc2OC)ccc1O` [Compound 43, 4-(4-(2-chloro-5-hydroxyphenylamino)-7-methoxyquinazolin-6-yl)-2-methoxyphenol]: the IC50 in assay [1] is 40.4 nM; in assay [2], 47.3 nM; in assay [3] it was 245 nM; in assay [4] it was 2.2 ± 0.4 µM; in assay [5], 8.7 ± 2.7 µM; in assay [6] it was greater than 50 µM. It took 24.7 ± 2.4 µM to reach half-maximal inhibition in assay [7] (IC50). For the same compound, the inhibition at 1 µM in assay [1] worked out at 94.3%.

Consider `c1cc(Nc2ncnc3ccc(-c4ccc5[nH]ncc5c4)cc23)c2cn[nH]c2c1` [Compound 153, N-(1H-indazol-4-yl)-6-(1H-indazol-5-yl)quinazolin-4-amine], for which the IC50 in assay [1] was 188 nM; in assay [2] it was 236 nM; in assay [3], 723 nM; in assay [4] it was 7.7 ± 0.6 µM; in assay [5] it was 6.4 ± 0.9 µM; in assay [6], 7.8 ± 0.3 µM. Also, the inhibition at 1 µM in assay [1] worked out at 84.4%.

As a reminder, the IC50 is the concentration at which inhibition is half-maximal. For orientation: inhibition means how much of the control response was suppressed.
